Series [1] concerns the target T1, unmodified bovine serum albumin (BSA) (Bos taurus, UniProt P02769).
T1 construct: A BSA protein standard without the addition of glutaraldehyde was run in parallel as a control
The series is described as follows: In vitro binding assay: Gd bound to protein after ultrafiltration (ICP). To be noted: protein fraction after separation from free solution.

Series [2] deals with T1, unmodified bovine serum albumin (BSA). The series is described as follows: T1 relaxivity/relaxation after incubation with unmodified BSA. It counts as binding. On the procedure:
(§1) A solution of glutaraldehyde (100 μL, 25% wt solution in water) was added to a solution of bovine serum albumin (100 mg) dissolved in phosphate buffered saline (2 mL, pH 7.4, 0.25 mM) and left to stir at room temperature for 5 min. To this solution was added sodium cyanoborohydride (25 mg) and the solution stirred overnight at 4° C. A BSA protein standard without the addition of glutaraldehyde was run in parallel as a control. Both protein mixtures were purified on PD-10 Sephadex G25 desalting columns (GE Healthcare), eluted with water, to remove excess glutaraldehyde. Protein concentrations were assessed using the ‘BCA Protein Assay Kit’ (Thermo Scientific). […] The aldehyde concentration of each protein was estimated using a standard DNPH literature protocol.
(§2) Aliquots of BSA-ALD (3 mg, 150 μL) or BSA (3mg, 163 μL) were treated for 24 h at 37° C. with either Compound 1 or Compound 2 at a range of concentrations (0.1-1.0 mM, concentrations equivalent to [Gd]:[aldehyde] ratio of 1:1, 2:1, 3:1, 4:1 and 5:1) with a total volume of 300 μl maintained for all samples. After 24 h longitudinal (T1) relaxation measurements were recorded using a Bruker mq20 Minispec at 0.47 T and 37° C. […] Relaxivity (r1) was determined from the slope of a plot of 1/T1 vs [Gd] for 5 concentrations of Gd(III). […]

The test system of series [3] is fibrotic liver (CCl4 mice). Kind of series: MR liver imaging in CCl4 mouse model of liver fibrosis (18 weeks). In kind it is in vivo. Particulars: fibrotic (CCl4-treated) mouse, pre vs 30-minute post administration. How it is done: Liver Fibrosis: Strain A/J male mice (Jackson Laboratories, Bar Harbor, Me.) were administered 0.1 mL of a 40% solution of CCl4 (Sigma, St. Louis, Mo.) in olive oil by oral gavage three times a week for 18 weeks to induce fibrosis. Controls received only pure olive oil. Animals were imaged one week after the last injection to avoid acute effects of CCl4.
Mice were imaged with T1-weighted imaging before and after bolus (tail vein) injection of probe (Compound 1 or Compound 2) using a 4.7T scanner. Image visualization and quantification was performed using the DICOM viewer Osirix. A region of interest (ROI) was placed over the entire liver section while avoiding major blood vessels. Axial slices that cover the entire liver is analyzed (>10 slices/mouse). The signal intensity of the muscle within each slice was also quantified by a separate ROI. To estimate noise, an ROI of the air outside the animal was measured and the standard deviation of this measurement was taken. The same analysis was performed on the pre and 30-min post injection images (3D FLASH sequence).
Contrast to noise ratio (CNR) is calculated using equation (1). SI=signal intensity, SD=standard deviation, and delta CNR is the absolute difference between the pre- and post- images (2).
(§3) CNR=(SIliver−SImuscle)/SDair (1)
Delta CNR={CNRpost−CNRpre} (2)

Series [4] is described as follows: T1 relaxivity of probe in solution (water) without protein. Particulars: no protein, 310K, pH 7, 0.47 T. In kind it is physicochemical. How it is done:
Aliquots of BSA-ALD (3 mg, 150 μL) or BSA (3mg, 163 μL) were treated for 24 h at 37° C. with either Compound 1 or Compound 2 at a range of concentrations (0.1-1.0 mM, concentrations equivalent to [Gd]:[aldehyde] ratio of 1:1, 2:1, 3:1, 4:1 and 5:1) with a total volume of 300 μl maintained for all samples. After 24 h longitudinal (T1) relaxation measurements were recorded using a Bruker mq20 Minispec at 0.47 T and 37° C. Longitudinal (T1) relaxation was acquired via an inversion recovery experiment on 10 inversions of duration ranging between 0.05×T1 and 10×T1. Relaxivity (r1) was determined from the slope of a plot of 1/T1 vs [Gd] for 5 concentrations of Gd(III).
Solutions of Compound 1 and Compound 2 (concentration range: 0.1 mM-1.0 mM, in water) were run in parallel without protein as standard controls.

For series [5], the target named is T2, modified bovine serum albumin (BSA-ALD) (Bos taurus, UniProt P02769). The series is described as follows: T1 relaxivity/relaxation after incubation with aldehyde-modified BSA. In kind it is binding. How it is done: as §1, §2
T2 sequence (P02769 25-607): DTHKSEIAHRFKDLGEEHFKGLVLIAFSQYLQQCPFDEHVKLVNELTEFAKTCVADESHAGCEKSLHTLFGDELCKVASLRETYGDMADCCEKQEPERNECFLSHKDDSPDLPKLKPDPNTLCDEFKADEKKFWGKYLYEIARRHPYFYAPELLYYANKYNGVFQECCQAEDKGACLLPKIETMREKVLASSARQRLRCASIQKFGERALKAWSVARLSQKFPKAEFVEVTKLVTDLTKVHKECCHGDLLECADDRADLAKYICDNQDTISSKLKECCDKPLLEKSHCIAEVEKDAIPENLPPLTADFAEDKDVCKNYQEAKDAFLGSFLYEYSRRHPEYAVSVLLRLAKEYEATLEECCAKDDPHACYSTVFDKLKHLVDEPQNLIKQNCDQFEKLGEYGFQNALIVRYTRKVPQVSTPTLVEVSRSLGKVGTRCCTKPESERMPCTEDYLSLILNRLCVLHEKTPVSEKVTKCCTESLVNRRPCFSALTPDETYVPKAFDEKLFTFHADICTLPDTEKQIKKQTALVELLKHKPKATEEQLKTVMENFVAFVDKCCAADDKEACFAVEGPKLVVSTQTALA
Series [6] has as its target T2, modified bovine serum albumin (BSA-ALD). The series is described as follows: In vitro binding assay: Gd bound to protein after ultrafiltration (ICP). To be noted: protein fraction after separation from free solution.
The test system of series [7] is liver fibrosis (CCl4-treated mice). The series is described as follows: MR liver imaging in mice after 6 or 12 weeks of CCl4 treatment, or 6 weeks plus recovery. Particulars: for ΔCNR (liver:muscle contrast-to-noise ratio): 15-minute post injection; for liver signal enhancement post vs pre injection (in words): 15 min post injection. In kind it is in vivo. On the procedure:
Strain A/J male mice (Jackson Laboratories, Bar Harbor, Me.) were administered 0.1 ml of a 40% solution of CCl4 (Sigma, St. Louis, Mo.) in olive oil by oral gavage, three times a week for either 6 (n=14) or 12 weeks (n=10), to induce fibrosis at different stages. Controls received only pure olive oil (n=12).
Animals were imaged prior to and immediately following injection of the imaging probe. After imaging, the animals were sacrificed and the liver was removed for histopathological analyses.
Animals were anesthetized with isoflurane (1-2%) and placed in a specially designed cradle with body temperature maintained at 37° C. The tail vein was cannulated for intravenous (iv) delivery of the contrast agent while the animal was positioned in the scanner. Imaging was performed at 4.7T using a small bore animal scanner (Bruker Biospec) with a custom-built volume coil. The mouse was imaged prior to and following a bolus iv injection of Compound 1 (100 μmol/kg). The image sequence was a three dimensional fast low angle shot (3D FLASH) acquisition with repetition time (TR=15.3 ms), echo time (TE=1.54 ms), flip angle=15°, field of view 48×24×24 mm and matrix size 192×96×96 for a resolution of 250 μm isotropic and […] used 4 averages.
Image analysis was performed using the Osirix software. A region of interest (ROI) was manually traced encompassing the liver parenchyma while avoiding major blood vessels. A second ROI was placed on the dorsal muscle visible in the same image slice to quantify the signal intensity in the muscle for comparison. Seven ROIs were placed in the field of view without any tissue (air) to measure the noise in the image. More than 20 axial slices per mouse across the entire liver was analyzed in this fashion. The same analysis was performed on the pre-injection and 15-minute post injection images.
To quantify signal enhancement in the liver, contrast to noise ratio (CNR) was calculated using equation 1 below. SI=signal intensity, SD=standard deviation. An average of all image slices was calculated for the pre-injection images (CNRpre) and for the post-injection images (CNRpos). The liver enhancement for each mouse was expressed as ΔCNR, the difference between the pre-injection CNR and post-injection CNR (equation 2).
as §3
Differences among groups were tested with repeated measures ANOVA, followed by Student-Newman-Keuls post hoc test with P<0.05 considered as significant.
Strain A/J male mice (Jackson Laboratories, Bar Harbor, Me.) were administered 0.1 ml of a 40% solution of CCl4 (Sigma, St. Louis, Mo.) in olive oil by oral gavage, three times a week for 6 weeks and then allowed to recover for an additional 6 weeks (n=7). Animals were imaged prior to and immediately following injection of the imaging probe using the same protocol as in the previous example.
We compared Compound 2 to Compound 1 in terms of their ability to image fibrosis. Compound 2 has a very similar structure to Compound 1 but the hydrazide functional group has been dimethylated. The resulting dimethylhydrazide in Compound 2 is incapable of undergoing irreversible reaction with aldehyde moieties. Using the same animal model and imaging paradigm as described in the previous Example, mice that had been treated with CCl4 for 12 weeks or mice that received vehicle for 12 weeks were imaged.

We go through one compound from patent publication US20170050989A1, “Molecular Imaging Probes” (THE GENERAL HOSPITAL CORPORATION, priority 2013, published 2017).

Structures are written as SMILES. Entries after “also recorded” stand apart in the source; their conditions may differ.

T1 sequence (P02769 25-607): as above

For `CN(C)NC(=O)CC[C@H](C(=O)O)N1CCN(CC(=O)[O-])CCN(CC(=O)[O-])CCN(CC(=O)[O-])CC1.[Gd+3]` [Compound 2, (R)-2,2′,2″-(10-(1-carboxy-4-(2,2-dimethylhydrazinyl)-4-oxobutyl)-1,4,7,10-tetraazacyclododecane-1,4,7-triyl)triacetic acid Gadolinium complex], the “Gd bound to protein” value in series [1] and in series [6] was “No statistically significant amount” throughout. The “change in T1 relaxation time compared to standards” value in series [2] (fractions after separation, BSA (FIG. 5A)) is on record as “did not differ significantly”. In addition, the “T1 relaxivity with BSA” value in series [2] (incubated 24 h at 37° C. with BSA, 310K, pH 7, 0.47 T) amounted to 4.20 mM⁻¹ s⁻¹. Moreover, the “MR signal enhancement of liver” value in series [3] was “very little enhancement; also recorded: little MR signal enhancement”. Moreover, in series [4], the “T1 relaxivity, standard solution measurement” value was 4.09 mM⁻¹ s⁻¹. For the same compound, in series [5] (incubated 24 h at 37° C. with BSA-ALD, 310K, pH 7, 0.47 T), the “T1 relaxivity with BSA-ALD” value stood at 4.22 mM⁻¹ s⁻¹. The “change in T1 relaxation time of protein fraction compared to solution controls” value in series [5] (protein fraction after separation, BSA-ALD (FIG. 5A)) is “did not differ significantly”. Further, in series [7] (12-week CCl4-treated animals vs vehicle), the “increase in ΔCNR, 12-week CCl4-treated vs vehicle” value is on record as “no difference”. For the same compound, the “ΔCNR (liver:muscle contrast-to-noise ratio)” value in series [7] (12-week CCl4-treated mice) came to 0.5±0.5; in series [7] (vehicle (olive oil) treated control mice, probe injected iv), 0.6±0.9. Besides, the “liver signal enhancement post vs pre injection (in words)” value in series [7] (12-week CCl4-treated mice) and in series [7] (vehicle treated mice) was “slight enhancement” in each case.
